According to patent US20220289727A1, “ENZYME INHIBITORS” (KALVISTA PHARMACEUTICALS LIMITED, priority 2019, published 2022):

Legend:
Human FXIa = biological target: T1, Human FXIa (Homo sapiens, UniProt P03951); assay: Determination of FXIa inhibitory activity in vitro (fluorogenic substrate Z-Gly-Pro-Arg-AFC); format: biochemical; conditions: selectivity, 25° C., residual enzyme activity (initial rate)
T1 construct: Human FXIa (Enzyme Research Laboratories) was incubated; purchased Enzyme Research Laboratories
T1 sequence (P03951 388-625 limits assumed): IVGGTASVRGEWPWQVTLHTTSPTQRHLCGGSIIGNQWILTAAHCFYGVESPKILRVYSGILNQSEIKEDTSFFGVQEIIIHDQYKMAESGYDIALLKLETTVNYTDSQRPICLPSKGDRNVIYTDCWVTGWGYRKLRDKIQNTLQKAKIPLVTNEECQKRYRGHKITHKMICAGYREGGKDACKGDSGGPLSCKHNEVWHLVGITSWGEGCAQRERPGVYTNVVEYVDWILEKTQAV
T1 sequence (P03951 19-387 partner limits assumed): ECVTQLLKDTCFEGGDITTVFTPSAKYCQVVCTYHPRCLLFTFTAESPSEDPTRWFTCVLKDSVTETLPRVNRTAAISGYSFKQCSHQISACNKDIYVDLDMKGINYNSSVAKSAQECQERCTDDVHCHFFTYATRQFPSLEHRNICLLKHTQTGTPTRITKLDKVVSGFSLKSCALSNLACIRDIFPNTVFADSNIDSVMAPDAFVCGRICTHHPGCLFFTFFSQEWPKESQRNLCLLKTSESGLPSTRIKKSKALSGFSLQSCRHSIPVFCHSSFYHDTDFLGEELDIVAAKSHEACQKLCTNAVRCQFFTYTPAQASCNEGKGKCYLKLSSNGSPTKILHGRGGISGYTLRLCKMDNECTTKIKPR

Human Factor XIIa = biological target: T2, Human Factor XIIa (Homo sapiens, UniProt P00748); assay: Determination of FXIIa inhibitory activity in vitro (fluorogenic substrate H-DPro-Phe-Arg-AFC); format: biochemical; conditions: 25° C., residual enzyme activity (initial rate)
T2 construct: Human Factor XIIa (Enzyme Research Laboratories) was incubated; purchased Enzyme Research Laboratories
T2 sequence (P00748 373-615 limits assumed): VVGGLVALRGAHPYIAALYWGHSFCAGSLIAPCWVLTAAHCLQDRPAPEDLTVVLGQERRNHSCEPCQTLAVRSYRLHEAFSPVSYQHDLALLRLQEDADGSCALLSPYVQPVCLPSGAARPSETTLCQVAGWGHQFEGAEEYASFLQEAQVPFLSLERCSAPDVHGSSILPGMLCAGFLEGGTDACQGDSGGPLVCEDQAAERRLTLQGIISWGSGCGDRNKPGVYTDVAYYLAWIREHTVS
T2 sequence (P00748 20-372 partner limits assumed): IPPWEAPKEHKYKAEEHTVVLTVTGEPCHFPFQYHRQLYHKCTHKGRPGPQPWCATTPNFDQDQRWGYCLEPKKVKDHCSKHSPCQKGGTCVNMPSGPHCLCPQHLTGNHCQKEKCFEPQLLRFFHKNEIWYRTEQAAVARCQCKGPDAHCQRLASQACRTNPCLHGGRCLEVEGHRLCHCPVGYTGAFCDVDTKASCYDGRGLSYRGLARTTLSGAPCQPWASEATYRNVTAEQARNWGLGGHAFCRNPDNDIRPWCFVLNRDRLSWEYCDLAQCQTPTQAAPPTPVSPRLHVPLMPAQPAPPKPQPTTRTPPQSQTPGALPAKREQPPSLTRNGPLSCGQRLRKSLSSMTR

SMILES: Nc1nccc2cc(CNC(=O)c3cc(Cl)c(CNCC4CCN(c5ccncc5)CC4)s3)ccc12 [Example 2.36, N-[(1-Aminoisoquinolin-6-yl)methyl]-4-chloro-5-[({[1-(pyridin-4-yl)piperidin-4-yl]methyl}amino)methyl]thiophene-2-carboxamide]
- IC50 (Human FXIa): 76.4 µM
- IC50 (Human Factor XIIa): 1 to 3 µM

SMILES: Nc1nccc2cc(CNC(=O)c3cc(Cl)c(CNCc4ccc(N5CCCC5=O)cc4)s3)ccc12 [Example 2.58]
- IC50 (Human FXIa): > 40 µM
- IC50 (Human Factor XIIa): 3 to 10 µM

SMILES: Nc1nccc2cc(CNC(=O)c3cc(Cl)c(CN4CCN(c5ccncc5)CC4)s3)ccc12 [Example 5.12]
- IC50 (Human FXIa): > 40 µM
- IC50 (Human Factor XIIa): 3 to 10 µM

SMILES: Nc1nccc2cc(CNC(=O)c3cc(Cl)c(CN4CCN(c5cccnc5)CC4)s3)ccc12 [Example 5.16]
- IC50 (Human FXIa): > 40 µM
- IC50 (Human Factor XIIa): 3 to 10 µM

SMILES: Nc1nccc2cc(CNC(=O)c3cc(Cl)c(CN4CCN(c5ccccn5)CC4)s3)ccc12 [Example 5.17]
- IC50 (Human FXIa): > 40 µM
- IC50 (Human Factor XIIa): 10 to 40 µM

SMILES: Nc1nccc2cc(CNC(=O)c3cc(Cl)c(CN4CC[C@@H](Nc5cccnc5)C4)s3)ccc12 [Example 5.18, N-[(1-Amino-6-isoquinolyl)methyl]-4-chloro-5-[[(3R)-3-(3-pyridylamino)pyrrolidin-1-yl]methyl]thiophene-2-carboxamide]
- IC50 (Human FXIa): 37.7 µM
- IC50 (Human Factor XIIa): 10 to 40 µM

SMILES: Nc1nccc2cc(CNC(=O)c3cc(Cl)c(CN4Cc5ccncc5C4)s3)ccc12 [Example 5.19]
- IC50 (Human FXIa): 29.3 µM
- IC50 (Human Factor XIIa): 3 to 10 µM

SMILES: Cc1cc(C(=O)NCc2ccc3c(N)nccc3c2)sc1CN1CCN(c2ccncc2)CC1 [Example 5.20, N-[(1-Amino-6-isoquinolyl)methyl]-4-methyl-5-[[4-(4-pyridyl)piperazin-1-yl]methyl]thiophene-2-carboxamide]
- IC50 (Human FXIa): > 40 µM
- IC50 (Human Factor XIIa): 10 to 40 µM

SMILES: Nc1nccc2cc(CNC(=O)c3cc(Cl)c(CN4CC[C@H](Nc5cccnc5)C4)s3)ccc12 [Example 5.21]
- IC50 (Human FXIa): > 40 µM
- IC50 (Human Factor XIIa): 10 to 40 µM

SMILES: Nc1nccc2cc(CNC(=O)c3cc(Cl)c(CN4CCc5ccncc5C4)s3)ccc12 [Example 5.22]
- IC50 (Human FXIa): > 40 µM
- IC50 (Human Factor XIIa): 3 to 10 µM

SMILES: Nc1nccc2c1CC[C@H]2NC(=O)c1cc(Cl)c(CN2CCN(c3ccncc3)CC2)s1 [Example 5.23, N-[(5R)-1-Amino-6,7-dihydro-5H-cyclopenta[c]pyridin-5-yl]-4-chloro-5-[[4-(4-pyridyl)piperazin-1-yl]methyl]thiophene-2-carboxamide]
- IC50 (Human FXIa): 8.35 µM
- IC50 (Human Factor XIIa): 10 to 40 µM

SMILES: Cc1cc(C(=O)NCc2ccc3c(N)nccc3c2)sc1CN1CCCN(c2ccncc2)CC1 [Example 5.24, N-((1-Aminoisoquinolin-6-yl)methyl)-4-methyl-5-((4-(pyridin-4-yl)-1,4-diazepan-1-yl)methyl) thiophene-2-carboxamide]
- IC50 (Human FXIa): > 40 µM
- IC50 (Human Factor XIIa): 3 to 10 µM

SMILES: Cc1cc(C(=O)NCc2ccc3c(N)nccc3c2)sc1CN1CC(Oc2ccncc2)C1 [Example 5.25, N-[(1-Amino-6-isoquinolyl)methyl]-4-methyl-5-[[3-(4-pyridyloxy)azetidin-1-yl]methyl]thiophene-2-carboxamide]
- IC50 (Human FXIa): > 40 µM
- IC50 (Human Factor XIIa): 10 to 40 µM

SMILES: Cc1cc(C(=O)NCc2ccc3c(N)nccc3c2)sc1CN1CCN(c2ccncn2)CC1 [Example 5.26, N-((1-Aminoisoquinolin-6-yl)methyl)-4-methyl-5-((4-(pyrimidin-4-yl)piperazin-1-yl)methyl) thiophene-2-carboxamide]
- IC50 (Human FXIa): > 40 µM
- IC50 (Human Factor XIIa): 10 to 40 µM

SMILES: Cc1cc(C(=O)NCc2ccc3c(N)nccc3c2)sc1CN1CCN(c2ccn(C)c(=O)c2)CC1 [Example 5.27]
- IC50 (Human FXIa): > 40 µM
- IC50 (Human Factor XIIa): 10 to 40 µM

SMILES: Cc1cc(C(=O)NCc2ccc3c(N)nccc3c2)sc1CN1CCN(c2cnn(C)c2)CC1 [Example 5.28]
- IC50 (Human FXIa): > 40 µM
- IC50 (Human Factor XIIa): 10 to 40 µM

SMILES: Cc1cc(C(=O)NCc2ccc3c(N)nccc3c2)sc1CN1CCN(c2cc[nH]c(=O)c2)CC1 [Example 5.29]
- IC50 (Human FXIa): 38.5 µM
- IC50 (Human Factor XIIa): 10 to 40 µM

SMILES: CNS(=O)(=O)c1sc(C(=O)NCc2ccc3c(N)nccc3c2)cc1Br [Example 25.07]
- IC50 (Human FXIa): > 40 µM
- IC50 (Human Factor XIIa): 1 to 3 µM

SMILES: Nc1nccc2cc(CNC(=O)c3cc(Cl)c(Cc4ccccc4)s3)ccc12 [Example 25.08]
- IC50 (Human FXIa): > 40 µM
- IC50 (Human Factor XIIa): 10 to 40 µM

SMILES: CN1CCC(c2ccc(C(=O)NCc3ccc4c(N)nccc4c3)s2)CC1 [Example 25.09]
- IC50 (Human FXIa): > 40 µM
- IC50 (Human Factor XIIa): 10 to 40 µM

SMILES: CN1CCC(Cc2sc(C(=O)NCc3ccc4c(N)nccc4c3)cc2Cl)CC1 [Example 25.10]
- IC50 (Human FXIa): > 40 µM
- IC50 (Human Factor XIIa): 3 to 10 µM

SMILES: Cc1cc(CN)cc(C)c1CNC(=O)c1cc(Cl)c(C)s1 [Example 25.102, N-(4-(Aminomethyl)-2,6-dimethylbenzyl)-4-chloro-5-methylthiophene-2-carboxamide]
- IC50 (Human FXIa): > 40 µM
- IC50 (Human Factor XIIa): 3 to 10 µM

SMILES: CN1CCC(Cn2c(C(=O)NCc3ccc4c(N)nccc4c3)cc3ccccc32)CC1 [Example 25.201]
- IC50 (Human FXIa): > 40 µM
- IC50 (Human Factor XIIa): 3 to 10 µM

SMILES: CCN1CCC(Cn2c(C(=O)NCc3ccc4c(N)nccc4c3)nc3ccccc32)CC1 [Example 25.202]
- IC50 (Human FXIa): > 40 µM
- IC50 (Human Factor XIIa): 1 to 3 µM

SMILES: Nc1nccc2cc(CNC(=O)c3cc4c(Cl)cccc4s3)ccc12 [Example 25.203, N-((1-Aminoisoquinolin-6-yl)methyl)-4-chlorobenzo[b]thiophene-2-carboxamide]
- IC50 (Human FXIa): > 40 µM
- IC50 (Human Factor XIIa): 1 to 3 µM

SMILES: Nc1nccc2cc(CNC(=O)c3cc4c(Cl)cccc4[nH]3)ccc12 [Example 25.207]
- IC50 (Human FXIa): > 40 µM
- IC50 (Human Factor XIIa): 1 to 3 µM

SMILES: CN1CCC(CNc2cnn(C)c2C(=O)NCc2ccc3c(N)nccc3c2)CC1 [Example 26.01]
- IC50 (Human FXIa): > 40 µM
- IC50 (Human Factor XIIa): 3 to 10 µM

SMILES: Cc1n[nH]c(C(=O)NCc2ccc3c(N)nccc3c2)c1NCC1CCN(C)CC1 [Example 26.02]
- IC50 (Human FXIa): > 40 µM
- IC50 (Human Factor XIIa): 10 to 40 µM

SMILES: Cc1cc(OCC2CCN(C)CC2)c(C(=O)NCc2ccc3c(N)nccc3c2)s1 [Example 26.04]
- IC50 (Human FXIa): > 40 µM
- IC50 (Human Factor XIIa): 10 to 40 µM

SMILES: Cc1cc(NCC2CCN(C)CC2)c(C(=O)NCc2ccc3c(N)nccc3c2)s1 [Example 26.05, N-((1-Aminoisoquinolin-6-yl)methyl)-5-methyl-3-(((1-methylpiperidin-4-yl)methyl)amino) thiophene-2-carboxamide]
- IC50 (Human FXIa): > 40 µM
- IC50 (Human Factor XIIa): 1 to 3 µM

SMILES: Cc1csc(C(=O)NCc2ccc3c(N)nccc3c2)c1NC(=O)C1CCN(C)CC1 [Example 26.07]
- IC50 (Human FXIa): > 40 µM
- IC50 (Human Factor XIIa): 10 to 40 µM

SMILES: Cc1c(Cl)sc(C(=O)NCc2ccc3c(N)nccc3c2)c1NCC1CCN(C)CC1 [Example 26.09]
- IC50 (Human FXIa): > 40 µM
- IC50 (Human Factor XIIa): 1 to 3 µM

SMILES: Cc1sc(C(=O)NCc2ccc3c(N)nccc3c2)c(NCC2CCN(C)CC2)c1Cl [Example 26.10, N-((1-Aminoisoquinolin-6-yl)methyl)-4-chloro-5-methyl-3-(((1-methylpiperidin-4-yl)methyl)amino) thiophene-2-carboxamide]
- IC50 (Human FXIa): > 40 µM
- IC50 (Human Factor XIIa): 1 to 3 µM

SMILES: CC(C)(C)OC(=O)N1CCC(Cn2nc(Cl)cc2C(=O)NCc2ccc3c(N)nccc3c2)CC1 [Example 35.01]
- IC50 (Human FXIa): > 40 µM
- IC50 (Human Factor XIIa): 10 to 40 µM

SMILES: Nc1nccc2cc(CNC(=O)c3cc(Cl)nn3CC3CCNCC3)ccc12 [Example 35.02]
- IC50 (Human FXIa): > 40 µM
- IC50 (Human Factor XIIa): 3 to 10 µM

SMILES: CCN1CCC(Cn2nc(Cl)cc2C(=O)NCc2ccc3c(N)nccc3c2)CC1 [Example 35.03]
- IC50 (Human FXIa): > 40 µM
- IC50 (Human Factor XIIa): 3 to 10 µM

SMILES: CN1CCC(CCn2nc(Cl)cc2C(=O)NCc2ccc3c(N)nccc3c2)CC1 [Example 35.04, N-((1-Aminoisoquinolin-6-yl)methyl)-3-chloro-1-(2-(1-methylpiperidin-4-yl)ethyl)-1H-pyrazole-5-carboxamide]
- IC50 (Human FXIa): > 40 µM
- IC50 (Human Factor XIIa): < 1 µM

SMILES: Nc1nccc2cc(CNC(=O)c3cc(C4CC4)nn3CC3CCN(c4ccncc4)CC3)ccc12 [Example 35.05]
- IC50 (Human FXIa): 31.7 µM
- IC50 (Human Factor XIIa): 3 to 10 µM

SMILES: Cc1cc(C(=O)NCc2ccc3c(N)nccc3c2)n(CC2CCN(c3ccncc3)CC2)n1 [Example 35.06]
- IC50 (Human FXIa): > 40 µM
- IC50 (Human Factor XIIa): 10 to 40 µM

SMILES: CN1CCC(CCn2nccc2C(=O)NCc2ccc3c(N)nccc3c2)CC1 [Example 35.07]
- IC50 (Human FXIa): > 40 µM
- IC50 (Human Factor XIIa): 1 to 3 µM

SMILES: CCn1c(C(=O)NCc2ccc3c(N)nccc3c2)cc(C)c1CN1CCN(c2ccncc2)CC1 [Example 51.02, N-[(1-Amino-6-isoquinolyl)methyl]-1-ethyl-4-methyl-5-[[4-(4-pyridyl)piperazin-1-yl]methyl]pyrrole-2-carboxamide]
- IC50 (Human FXIa): 12.4 µM
- IC50 (Human Factor XIIa): 10 to 40 µM

SMILES: CCc1cc(C(=O)NCc2ccc3c(N)nccc3c2)sc1CN1CCN(c2ccncc2)CC1 [Example 51.03]
- IC50 (Human FXIa): 20.5 µM
- IC50 (Human Factor XIIa): 3 to 10 µM

SMILES: Cc1cc(C(=O)NCc2ccc3c(N)nccc3c2)nn1CC1CCN(c2ccncc2)CC1 [Example 51.04]
- IC50 (Human FXIa): > 40 µM
- IC50 (Human Factor XIIa): 3 to 10 µM

SMILES: CN1CCC(CCn2nc(C(=O)NCc3ccc4c(N)nccc4c3)cc2Cl)CC1 [Example 51.05, N-((1-Aminoisoquinolin-6-yl)methyl)-5-chloro-1-(2-(1-methylpiperidin-4-yl)ethyl)-1H-pyrazole-3-carboxamide]
- IC50 (Human FXIa): > 40 µM
- IC50 (Human Factor XIIa): < 1 µM
